Laboratory results reported in ChEMBL document CHEMBL3046903, “Systemic action of novel neonicotinoid insecticide IPP-10 and its effect on the feeding behaviour of Rhopalosiphum padi on wheat” (2010).
≈ marks a conversion by molar mass, not a printed value. Calls of active or inactive are those of the source. The rule behind the calls is not given here.

Key:
Rhopalosiphum padi [1] = experiment: Toxicity against Rhopalosiphum padi infested wheat plant assessed as mortality at 1000 mg/l applied to upper plant for 1 min followed by basipetal transportation for 48 hr measured 48 hr after removal of upper plant parts relative to control; assay type: functional
Rhopalosiphum padi [2] = experiment: Toxicity against Rhopalosiphum padi infested wheat plant assessed as mortality at 1000 mg/l applied to upper plant for 1 min followed by basipetal transportation for 48 hr measured 24 hr after removal of upper plant parts relative to control; assay type: functional
Rhopalosiphum padi [3] = experiment: Toxicity against Rhopalosiphum padi infested wheat plant assessed as mortality at 1000 mg/l applied to upper plant for 1 min followed by basipetal transportation for 24 hr measured 48 hr after removal of upper plant parts relative to control; assay type: functional
Rhopalosiphum padi [4] = experiment: Toxicity against Rhopalosiphum padi infested wheat plant assessed as mortality at 1000 mg/l applied to upper plant for 1 min followed by basipetal transportation for 24 hr measured 24 hr after removal of upper plant parts relative to control; assay type: functional
Rhopalosiphum padi [5] = experiment: Contact toxicity against Rhopalosiphum padi infested wheat plant applied as spray measured after 24 hr; assay type: functional
Rhopalosiphum padi [6] = experiment: Insecticidal activity against adult Rhopalosiphum padi infested wheat plant assessed as reduction in xylem ingestion at 0.4 mg/l applied to the roots for 6 hr by electrical penetration graphical analysis relative to control; assay type: functional, organism-based
Rhopalosiphum padi [7] = experiment: Insecticidal activity against adult Rhopalosiphum padi infested wheat plant assessed as reduction in occurrences of phloem ingestion at 0.4 mg/l applied to the roots for 6 hr by electrical penetration graphical analysis relative to control; assay type: functional, organism-based
Rhopalosiphum padi [8] = experiment: Insecticidal activity against adult Rhopalosiphum padi infested wheat plant assessed as reduction in occurrences of salivation into sieve elements at 0.4 mg/l applied to the roots for 6 hr by electrical penetration graphical analysis relative to control; assay type: functional, organism-based
Rhopalosiphum padi [9] = experiment: Insecticidal activity against adult Rhopalosiphum padi infested wheat plant assessed as total time of xylem ingestion at 0.4 mg/l applied to the roots for 6 hr by electrical penetration graphical analysis (reference value: 23.1 +/- 4.5 min); assay type: functional
Rhopalosiphum padi [10] = experiment: Insecticidal activity against adult Rhopalosiphum padi infested wheat plant assessed as total time of phloem ingestion at 0.4 mg/l applied to the roots for 6 hr by electrical penetration graphical analysis (reference value: 296.4 +/- 39.3 min); assay type: functional
Rhopalosiphum padi [11] = experiment: Insecticidal activity against adult Rhopalosiphum padi infested wheat plant assessed as total time of salivation into sieve elements at 0.4 mg/l applied to the roots for 6 hr by electrical penetration graphical analysis (reference value: 35.4 +/- 6.8 secs); assay type: functional
Rhopalosiphum padi [12] = experiment: Insecticidal activity against adult Rhopalosiphum padi infested wheat plant assessed as time taken for first xylem ingestion occurrence at 0.4 mg/l applied to the roots for 6 hr by electrical penetration graphical analysis (reference value: 145.5 +/- 27.1 min); assay type: functional
Rhopalosiphum padi [13] = experiment: Insecticidal activity against adult Rhopalosiphum padi infested wheat plant assessed as time taken for first phloem activity occurrence at 0.4 mg/l applied to the roots for 6 hr by electrical penetration graphical analysis (reference value: 141.9 +/- 18.1 min); assay type: functional
Rhopalosiphum padi [14] = experiment: Toxicity against first-instar nymph of Rhopalosiphum padi assessed as reduction in reproductive rate at 0.4 mg/l applied to roots measured after 16 days relative to control; assay type: functional, organism-based
Rhopalosiphum padi [15] = experiment: Toxicity against first-instar nymph of Rhopalosiphum padi assessed as time until reproductive maturity at 0.4 mg/l applied to roots (reference value: 6.6 +/- 0.52 days); assay type: functional
Rhopalosiphum padi [16] = experiment: Toxicity against first-instar nymph of Rhopalosiphum padi assessed as reduction in weight at 0.4 mg/l applied to roots measured after 7 days relative to control; assay type: functional, organism-based
Rhopalosiphum padi [17] = experiment: Insecticidal activity against adult Rhopalosiphum padi infested wheat plant assessed as bout duration of xylem ingestion at 2 mg/l applied to the roots for 6 hr by electrical penetration graphical analysis (reference value: 20.4 +/- 4.5 min); assay type: functional
Rhopalosiphum padi [18] = experiment: Insecticidal activity against adult Rhopalosiphum padi infested wheat plant assessed as bout duration of phloem ingestion at 2 mg/l applied to the roots for 6 hr by electrical penetration graphical analysis (reference value: 277.2 +/- 30.8 min); assay type: functional
Rhopalosiphum padi [19] = experiment: Insecticidal activity against adult Rhopalosiphum padi infested wheat plant assessed as bout duration of salivation into sieve elements at 2 mg/l applied to the roots for 6 hr by electrical penetration graphical analysis (reference value: 32.4 +/- 3 secs); assay type: functional
Rhopalosiphum padi [20] = experiment: Insecticidal activity against adult Rhopalosiphum padi infested wheat plant assessed as reduction in xylem ingestion at 2 mg/l applied to the roots for 6 hr by electrical penetration graphical analysis relative to control; assay type: functional, organism-based
Rhopalosiphum padi [21] = experiment: Insecticidal activity against adult Rhopalosiphum padi infested wheat plant assessed as reduction in occurrences of phloem ingestion at 2 mg/l applied to the roots for 6 hr by electrical penetration graphical analysis relative to control; assay type: functional, organism-based
Rhopalosiphum padi [22] = experiment: Insecticidal activity against adult Rhopalosiphum padi infested wheat plant assessed as reduction in occurrences of salivation into sieve elements at 2 mg/l applied to the roots for 6 hr by electrical penetration graphical analysis relative to control; assay type: functional, organism-based
Rhopalosiphum padi [23] = experiment: Insecticidal activity against adult Rhopalosiphum padi infested wheat plant assessed as total time of xylem ingestion at 2 mg/l applied to the roots for 6 hr by electrical penetration graphical analysis (reference value: 23.1 +/- 4.5 min); assay type: functional
Rhopalosiphum padi [24] = experiment: Insecticidal activity against adult Rhopalosiphum padi infested wheat plant assessed as total time of phloem ingestion at 2 mg/l applied to the roots for 6 hr by electrical penetration graphical analysis (reference value: 296.4 +/- 39.3 min); assay type: functional
Rhopalosiphum padi [25] = experiment: Insecticidal activity against adult Rhopalosiphum padi infested wheat plant assessed as total time of salivation into sieve elements at 2 mg/l applied to the roots for 6 hr by electrical penetration graphical analysis (reference value: 35.4 +/- 6.8 secs); assay type: functional
Rhopalosiphum padi [26] = experiment: Insecticidal activity against adult Rhopalosiphum padi infested wheat plant assessed as frequency of phloem ingestion at 0.4 mg/l applied to the roots for 6 hr by electrical penetration graphical analysis (reference value: 2.85 +/- 0.18 Hz); assay type: functional
Rhopalosiphum padi [27] = experiment: Insecticidal activity against adult Rhopalosiphum padi infested wheat plant assessed as frequency of xylem ingestion at 0.4 mg/l applied to the roots for 6 hr by electrical penetration graphical analysis (reference value: 8.2 +/- 0.3 Hz); assay type: functional
Rhopalosiphum padi [28] = experiment: Insecticidal activity against adult Rhopalosiphum padi infested wheat plant assessed as bout duration of xylem ingestion at 0.4 mg/l applied to the roots for 6 hr by electrical penetration graphical analysis (reference value: 20.4 +/- 4.5 min); assay type: functional
Rhopalosiphum padi [29] = experiment: Insecticidal activity against adult Rhopalosiphum padi infested wheat plant assessed as bout duration of phloem ingestion at 0.4 mg/l applied to the roots for 6 hr by electrical penetration graphical analysis (reference value: 277.2 +/- 30.8 min); assay type: functional
Rhopalosiphum padi [30] = experiment: Insecticidal activity against adult Rhopalosiphum padi infested wheat plant assessed as bout duration of salivation into sieve elements at 0.4 mg/l applied to the roots for 6 hr by electrical penetration graphical analysis (reference value: 32.4 +/- 3 secs); assay type: functional
Rhopalosiphum padi [31] = experiment: Toxicity against Rhopalosiphum padi infested wheat plant applied to the roots measured after 48 hr; assay type: functional
Rhopalosiphum padi [32] = experiment: Toxicity against Rhopalosiphum padi infested wheat plant applied to the roots measured after 24 hr; assay type: functional

O=[N+]([O-])/N=C1\NCCN1Cc1ccc(Cl)nc1 [IMIDACLOPRID]
Activity (Rhopalosiphum padi [1]): 7.1% | Activity (Rhopalosiphum padi [2]): 3.5% | Activity (Rhopalosiphum padi [3]): 6.7% | Activity (Rhopalosiphum padi [4]): 3.1% | LC50 (Rhopalosiphum padi [5]): 0.9 µg/mL (≈ 3.52 µM)

CC1CC(O)N2CCN(Cc3ccc(Cl)nc3)C2=C1[N+](=O)[O-] (centres undefined)
Activity (Rhopalosiphum padi [6]): inactive | Activity (Rhopalosiphum padi [7]): inactive | Activity (Rhopalosiphum padi [8]): inactive | Time (Rhopalosiphum padi [9]): 10.4 min | Time (Rhopalosiphum padi [10]): 218.8 min | Time (Rhopalosiphum padi [11]): 64.3 s | Time (Rhopalosiphum padi [12]): 141.5 min | Time (Rhopalosiphum padi [13]): 139.8 min | Activity (Rhopalosiphum padi [1]): 59.9% | Activity (Rhopalosiphum padi [2]): 18.4% | Activity (Rhopalosiphum padi [14]): Active | Time (Rhopalosiphum padi [15]): 8.39 days | Activity (Rhopalosiphum padi [16]): Active | Time (Rhopalosiphum padi [17]): 0 min | Time (Rhopalosiphum padi [18]): 0 min | Time (Rhopalosiphum padi [19]): 0 s | Activity (Rhopalosiphum padi [20]): Active | Activity (Rhopalosiphum padi [21]): Active | Activity (Rhopalosiphum padi [22]): Active | Time (Rhopalosiphum padi [23]): 0 min | Time (Rhopalosiphum padi [24]): 0 min | Time (Rhopalosiphum padi [25]): 0 s | Activity (Rhopalosiphum padi [26]): 1.96 Hz | Activity (Rhopalosiphum padi [27]): 7.03 Hz | Time (Rhopalosiphum padi [28]): 9.7 min | Time (Rhopalosiphum padi [29]): 206.8 min | Time (Rhopalosiphum padi [30]): 59.5 s | Activity (Rhopalosiphum padi [3]): 33.2% | Activity (Rhopalosiphum padi [4]): 14.3% | LC15 (Rhopalosiphum padi [31]): 0.09 µg/mL (≈ 0.277 µM) | LC50 (Rhopalosiphum padi [31]; Rhopalosiphum padi, 48 h): 2.4 µg/mL (≈ 7.39 µM) | LC15 (Rhopalosiphum padi [32]): 0.4 µg/mL (≈ 1.23 µM) | LC50 (Rhopalosiphum padi [32]; Rhopalosiphum padi, 24 h): 23.4 µg/mL (≈ 72.1 µM) | LC50 (Rhopalosiphum padi [5]): 2.45 µg/mL (≈ 7.54 µM)
